Patent US10246439B2, “Apoptosis signal-regulating kinase 1 inhibitors and methods of use thereof” (ENANTA PHARMACEUTICALS, INC., priority 2017, dated 2019)

Molecular target: T1, ASK1 (Homo sapiens, UniProt Q99683)
T1 construct: purchased Thermofisher PV4011
T1 sequence (Q99683 1-1374): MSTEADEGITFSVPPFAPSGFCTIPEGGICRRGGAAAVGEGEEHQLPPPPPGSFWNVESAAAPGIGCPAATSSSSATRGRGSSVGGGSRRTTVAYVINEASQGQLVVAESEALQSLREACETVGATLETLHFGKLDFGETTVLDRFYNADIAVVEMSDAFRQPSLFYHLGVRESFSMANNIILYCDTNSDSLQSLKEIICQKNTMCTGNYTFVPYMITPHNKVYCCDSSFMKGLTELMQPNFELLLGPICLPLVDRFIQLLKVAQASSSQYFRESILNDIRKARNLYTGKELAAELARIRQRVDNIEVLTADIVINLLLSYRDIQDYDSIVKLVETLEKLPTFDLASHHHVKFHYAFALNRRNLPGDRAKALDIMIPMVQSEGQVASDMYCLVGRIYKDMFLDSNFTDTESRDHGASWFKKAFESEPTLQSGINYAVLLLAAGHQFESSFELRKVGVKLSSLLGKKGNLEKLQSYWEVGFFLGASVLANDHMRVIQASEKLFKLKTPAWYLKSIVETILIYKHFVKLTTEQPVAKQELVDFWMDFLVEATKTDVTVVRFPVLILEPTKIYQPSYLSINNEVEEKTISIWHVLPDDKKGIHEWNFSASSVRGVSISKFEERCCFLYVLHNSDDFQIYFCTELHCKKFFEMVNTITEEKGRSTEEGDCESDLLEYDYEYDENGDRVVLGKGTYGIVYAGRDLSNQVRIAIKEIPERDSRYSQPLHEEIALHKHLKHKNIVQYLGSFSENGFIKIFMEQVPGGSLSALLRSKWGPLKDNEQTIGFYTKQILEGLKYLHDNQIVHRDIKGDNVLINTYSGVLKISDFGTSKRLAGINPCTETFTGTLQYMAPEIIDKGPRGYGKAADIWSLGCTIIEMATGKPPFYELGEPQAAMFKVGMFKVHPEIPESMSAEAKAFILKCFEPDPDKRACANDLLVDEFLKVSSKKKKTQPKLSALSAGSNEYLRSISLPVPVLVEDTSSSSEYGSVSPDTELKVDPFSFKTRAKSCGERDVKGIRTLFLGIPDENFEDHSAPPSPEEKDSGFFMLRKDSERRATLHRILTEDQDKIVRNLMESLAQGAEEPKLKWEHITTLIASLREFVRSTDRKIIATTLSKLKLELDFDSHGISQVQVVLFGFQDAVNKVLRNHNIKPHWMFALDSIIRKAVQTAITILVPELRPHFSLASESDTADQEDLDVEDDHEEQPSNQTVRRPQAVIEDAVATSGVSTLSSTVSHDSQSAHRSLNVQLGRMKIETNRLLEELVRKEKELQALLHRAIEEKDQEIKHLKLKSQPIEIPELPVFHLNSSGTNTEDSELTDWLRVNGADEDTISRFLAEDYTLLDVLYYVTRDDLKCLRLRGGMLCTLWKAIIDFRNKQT
Test: HTRF KinEASE-STK TR-FRET kinase assay, inhibition of ASK1
Assay type: biochemical
Conditions: 5 nM ASK1, 1 uM STK3 peptide substrate, 100 uM ATP
Protocol: ASK1 was purchased from Thermofisher (Catalogue # PV4011), ATP was purchased from Sigma (Catalogue # A7699), HTRF® KinEASE™ Assay System was obtained from Cisbio (Bedford, Mass.). ½ Area plate was purchased from Perkin Elmer (Catalogue # #6005560). HTRF® KinEASE™-STK is a generic method for measuring serine/threonine kinase activities using a time-resolved fluorescence resonance energy transfer (TR-FRET) immunoassay. The IC50 value for each compound was determined in the presence of compound (various concentration from 0 to 10 μM) and a fixed amount of ATP and peptide substrates. The test compound, 1 uM STK3 peptide substrate, and 5 nM of ASK1 kinase are incubated with kinase reaction buffer containing 50 mM HEPES pH 7.5, 0.01% BRIJ-35, 10 mM MgCl2, and 1 mM EGTA for 30 minutes. 100 uM ATP is added to start kinase reaction and incubated for 3 hours. The STK3-antibody labeled with Eu^3+-Cryptate and 125 nM streptavidin-XL665 are mixed in a single addition with stop reagents provided by the Cisbio kit used to stop the kinase reaction. Fluorescence is detected using an Envision Multilabeled 2014 reader from PerkinElmer. The Fluorescence is measured at 615 nm (Cryptate) and 665 nm (XL665) and a ratio of 665 nm/615 nm is calculated for each well. The resulting TR-FRET is proportional to the phosphorylation level. Staurosporine was used as the positive control. IC50 was determined by XLfit 5.3.

Row | SMILES | IC50
1 | CC(C)n1cnnc1-c1cccc(NC(=O)c2cc3sc(N(C)CC4CC4)nc3cc2F)n1 [Example 11] | 1 to 10 nM
2 | CC(C)n1cnnc1-c1cccc(NC(=O)c2cc3sc(N4CCC(C(C)(C)C)CC4)nc3cc2F)n1 [Example 29] | 10 to 100 nM
3 | CC(C)n1nnnc1-c1cccc(NC(=O)c2cc3sc(N4CCCCC4)nc3cc2F)n1 [Example 4] | > 1000 nM
4 | CC(C)n1cnnc1-c1cccc(NC(=O)c2ccc3nc(N4CCC(C)(C)CC4)sc3c2)n1 [Example 54] | > 1000 nM
5 | CC(C)n1nnnc1-c1cccc(NC(=O)c2cc3sc(N4CCCC4)nc3cc2F)n1 [Example 47] | > 1000 nM
6 | CC(C)n1nnnc1-c1cccc(NC(=O)c2cc3sc(NC4CC4)nc3cc2F)n1 [Example 38] | > 1000 nM
7 | CC(C)n1nnnc1-c1cccc(NC(=O)c2cc3sc(NC4CCCCC4)nc3cc2F)n1 [Example 34] | > 1000 nM
8 | CCN(CC)c1nc2cc(F)c(C(=O)Nc3cccc(-c4nnnn4C(C)C)n3)cc2s1 [Example 35] | > 1000 nM
9 | CC(C)n1cnnc1-c1cccc(NC(=O)c2ccc3nc(N4CC5CCC(C4)O5)sc3c2)n1 [Example 17] | 10 to 100 nM
10 | CNc1nc2cc(F)c(C(=O)Nc3cccc(-c4nncn4C(C)C)n3)cc2s1 [Example 49, 5-fluoro-N-(6-(4-isopropyl-4H-1,2,4-triazol-3-yl)pyridin-2-yl)-2-(methylamino)benzo[d]thiazole-6-carboxamide] | 1 to 10 nM
11 | CC(C)n1cnnc1-c1cccc(NC(=O)c2ccc3nc(N4CCCC4)sc3c2)n1 [Example 20] | 100 to 1000 nM
12 | CCCCNc1nc2cc(F)c(C(=O)Nc3cccc(-c4nnnn4C(C)C)n3)cc2s1 [Example 40] | > 1000 nM
13 | CC(C)n1cnnc1-c1cccc(NC(=O)c2cc3sc(N4CCC4)nc3cc2F)n1 [Example 28] | 1 to 10 nM
14 | CC(C)n1nnnc1-c1cccc(NC(=O)c2cc3sc(N(C)C)nc3cn2)n1 [Example 75] | 10 to 100 nM
15 | CC(C)n1cnnc1-c1cccc(NC(=O)c2ccc3nc(N4CCC4)sc3c2)n1 [Example 21] | 100 to 1000 nM
16 | CC(C)n1cnnc1-c1cccc(NC(=O)c2ccc3ncsc3c2)n1 [Example 2, N-(6-(4-isopropyl-4H-1,2,4-triazol-3-yl)pyridin-2-yl)benzo[d]thiazole-6-carboxamide] | 100 to 1000 nM
17 | CC(C)n1cnnc1-c1cccc(NC(=O)c2cc3sc(C4CCC4)nc3cn2)n1 [Example 67] | 10 to 100 nM
18 | CC(C)n1nnnc1-c1cccc(NC(=O)c2cc3sc(N4CCN(C(C)(C)C)CC4)nc3cn2)n1 [Example 71] | 100 to 1000 nM
19 | CC(C)n1nnnc1-c1cccc(NC(=O)c2cc3sc(N4CCC4)nc3cc2F)n1 [Example 45] | > 1000 nM
20 | CC(C)n1cnnc1-c1cccc(NC(=O)c2ccc3nc(N4CCC(C(C)(C)C)CC4)sc3c2)n1 [Example 25] | 100 to 1000 nM
21 | CC(C)n1cnnc1-c1cccc(NC(=O)c2cc3sc(N4CCN(C(C)(C)C)CC4)nc3cc2F)n1 [Example 15] | 10 to 100 nM
22 | CC(C)Nc1nc2ccc(C(=O)Nc3cccc(-c4nncn4C(C)C)n3)cc2s1 [Example 56] | 100 to 1000 nM
23 | CC(C)n1cnnc1-c1cccc(NC(=O)c2cc3sc(N4CCN(C5CC5)CC4)nc3cc2F)n1 [Example 12] | 1 to 10 nM
24 | CC(C)n1cnnc1-c1cccc(NC(=O)c2ccc3nc(NC4CCCCC4)sc3c2)n1 [Example 24] | 10 to 100 nM

Row | SMILES | IC50
25 | CC(C)n1cnnc1-c1cccc(NC(=O)c2cc3sc(N4CCCC4)nc3cc2F)n1 [Example 50] | 1 to 10 nM
26 | CC(C)n1nnnc1-c1cccc(NC(=O)c2cc3sc(N(C)C4CC4)nc3cc2F)n1 [Example 32] | > 1000 nM
27 | CC(C)n1nnnc1-c1cccc(NC(=O)c2cc3sc(C4CCC4)nc3cn2)n1 [Example 69] | > 1000 nM
28 | CC(C)n1cnnc1-c1cccc(NC(=O)c2ccc3nc(N4CCCCC4)sc3c2)n1 [Example 60, N-(6-(4-isopropyl-4H-1,2,4-triazol-3-yl)pyridin-2-yl)-2-(piperidin-1-yl)benzo[d]thiazole-6-carboxamide] | 10 to 100 nM
29 | CC(C)n1cnnc1-c1cccc(NC(=O)c2ccc3nc(N4CCN(C(C)(C)C)CC4)sc3c2)n1 [Example 59] | 10 to 100 nM
30 | CC(C)n1nnnc1-c1cccc(NC(=O)c2cc3sc(N(C)C)nc3cc2F)n1 [Example 5] | 10 to 100 nM
31 | CC(C)n1nnnc1-c1cccc(NC(=O)c2cc3sc(N4CCN(C5CC5)CC4)nc3cc2F)n1 [Example 42] | > 1000 nM
32 | CC(C)n1cnnc1-c1cccc(NC(=O)c2cc3sc(N4CCOCC4)nc3cc2F)n1 [Example 16] | 1 to 10 nM
33 | CC(C)n1cnnc1-c1cccc(NC(=O)c2cc3sc(N4CCCCC4)nc3cn2)n1 [Example 66, N-(6-(4-isopropyl-4H-1,2,4-triazol-3-yl)pyridin-2-yl)-2-(piperidin-1-yl)thiazolo[4,5-c]pyridine-6-carboxamide] | 1 to 10 nM
34 | CC(C)n1cnnc1-c1cccc(NC(=O)c2ccc3nc(N4CCOCC4)sc3c2)n1 [Example 61] | 10 to 100 nM
35 | CC(C)n1cnnc1-c1cccc(NC(=O)c2cc3sc(N(C)C4CC4)nc3cc2F)n1 [Example 10] | 1 to 10 nM
36 | CC(C)n1cnnc1-c1cccc(NC(=O)c2cc3sc(N4CCCCC4)nc3cc2F)n1 [Example 30, 5-fluoro-N-(6-(4-isopropyl-4H-1,2,4-triazol-3-yl)pyridin-2-yl)-2-(piperidin-1-yl)benzo[d]thiazole-6-carboxamide] | 1 to 10 nM
37 | CC(C)n1cnnc1-c1cccc(NC(=O)c2cc3sc(N(C)C4CCCCC4)nc3cc2F)n1 [Example 8] | 1 to 10 nM
38 | CC(C)n1nnnc1-c1cccc(NC(=O)c2cc3sc(N4CCOCC4)nc3cn2)n1 [Example 72] | > 1000 nM
39 | CC(C)n1nnnc1-c1cccc(NC(=O)c2cc3sc(C4CC4)nc3cn2)n1 [Example 70] | > 1000 nM
40 | CC(C)n1nnnc1-c1cccc(NC(=O)c2cc3sc(C4CC4)nc3cc2F)n1 [Example 31] | > 1000 nM
41 | CC(C)n1cnnc1-c1cccc(NC(=O)c2cc3sc(NC4CC4)nc3cc2F)n1 [Example 6, 2-(cyclopropylamino)-5-fluoro-N-(6-(4-isopropyl-4H-1,2,4-triazol-3-yl)pyridin-2-yl)benzo[d]thiazole-6-carboxamide] | 1 to 10 nM
42 | CC(C)n1cnnc1-c1cccc(NC(=O)c2ccc3nc(-c4ccccc4)sc3c2)n1 [Example 22] | 100 to 1000 nM
43 | CC(C)n1cnnc1-c1cccc(NC(=O)c2cc3sc(NCC4CC4)nc3cc2F)n1 [Example 48] | 10 to 100 nM
44 | CC(C)n1nnnc1-c1cccc(NC(=O)c2cc3sc(N4CCOCC4)nc3cc2F)n1 [Example 46] | 10 to 100 nM
45 | CC(C)n1cnnc1-c1cccc(NC(=O)c2ccc3nc(-c4ccc(C(C)(C)C)cc4)sc3c2)n1 [Example 58, 2-(4-(tert-butyl)phenyl)-N-(6-(4-isopropyl-4H-1,2,4-triazol-3-yl)pyridin-2-yl)benzo[d]thiazole-6-carboxamide] | > 1000 nM
46 | CC(C)n1nnnc1-c1cccc(NC(=O)c2cc3sc(N4CCC(C(C)(C)C)CC4)nc3cc2F)n1 [Example 41] | > 1000 nM
47 | CC(C)n1cnnc1-c1cccc(NC(=O)c2ccc3nc(N4CCC(F)(F)CC4)sc3c2)n1 [Example 19] | 10 to 100 nM
